{"source": "patent US20080108573A1", "about": "“Compositions And Methods For Treatment Of Cardiovascular Disease” (priority 2004, published 2008)", "key": {"[1]": {"tested_on": "SHR and WKY rats on low/high salt diet, L-NAME plus high salt diet, or streptozotocin induced diabetes", "assay": "Preliminary four-week VIP infusion in rat models of myocardial fibrosis (Example 1)", "type": "in vivo", "conditions": "VIP 7.2 nmol/kg/day via Alzet mini pump, four weeks, vs vehicle", "source_text": "Further preliminary experiments have been conducted on a number of animal models, which encompass a range of fibrous tissue replacement, varying from mild to moderate to severe. The experiments on the animal models encompassed a variety of aetiologies (alone and in combination) and a range of levels of induced fibrosis. For these experiments two types of rats were used, spontaneously hypertensive rats (SHR) and normotensive control Wistar-Kyoto rats (WKY). The WKY rats were given: 1) low salt diet, 2) high salt diet, or 3) L-NAME (ω-monomethyl-nitro-L-arginine; 10 mg/kg/day) plus high salt diet. The SHR rats were given low or high salt diets. The effect of VIP infusion in diabetic heart disease was also studied in the WKY rate with streptozotocin induced diabetes.\nIn each treatment group, rats were randomised to VIP or vehicle infusion (n=24 in each group) for four weeks. VIP was administered via Alzet mini pump at a rate of 7.2 nmol/kg/day.\nAfter four weeks, the rats were anaesthetised and the hearts were harvested. Myocardial VIP concentrations and myocardial fibrosis were quantitated."}, "[2]": {"tested_on": "WKY rats on low, intermediate, high salt diet or high salt diet plus L-NAME", "assay": "Acute VIP infusion: uptake of VIP by the myocardium (Examples 1 and 2)", "type": "in vivo", "conditions": "VIP 10 pmol/kg/min for one hour, rat models with increasing degree of fibrosis", "method": "In preliminary studies a series of acute infusion experiments have been conducted in animal models.\nFourteen week old WKY rats were randomised to low salt diet (0.008%), intermediate salt diet (2.2%), high salt diet (4.4%) or high salt diet plus L-NAME (10 mg/kg/day) in the drinking water for 4 weeks (n=16 rats per group). On the day of the experiment the rats were anaesthetised and venous and arterial cannulae inserted. After a one hour rest equilibration period the rats were randomised to vehicle control (Haemaccell, Aventis) or VIP (10 pmol/kg/min) infusion for one hour at an infusion rate of 0.017 ml/min. The hearts were then harvested, myocardial VIP concentrations were measured and myocardial fibrosis quantitated.\nThe difference between the mean myocardial VIP concentrations after VIP or control infusion is a measure of VIP uptake by the heart.\n(§1) VIP was measured by radioimmunoassay in known manner (see Davis R. E., Shelley S., Macdonald G. J. & Duggan K. A. (1992) The effects of a high sodium diet on the metabolism and secretion of vasoactive intestinal peptide in the rabbit. J. Physiol. 451:17-23. Duggan K. A., Ye V. Z. C., Jones D. M. Davis R. E. & Macdonald G. J. (1995) Effects of Endopeptidase 24.11 blockade on plasma and tissue concentrations of vasoactive intestinal peptide Clin. Sci. 89:267-271). […]"}, "[3]": {"tested_on": "WKY rat fed a high salt diet; WKY rat fed a high salt diet and given L-NAME", "assay": "Effect of VIP infusion on fibrosis in animal models of fibrosis (Example 3)", "type": "in vivo", "conditions": "VIP 5 pmol/kg/min, 4 weeks via Alzet minipump; WKY high salt diet and high salt diet plus L-NAME (FIGS. 2 and 3)", "method": "Three animal models of myocardial fibrosis were used (animals obtained from Australian Animal Resources, Perth, Western Australia, Australia) • i) WKY rat fed a high salt diet • ii) WKY rat fed a high salt diet and given L-NAME (ω-monomethyl-nitro-L-arginine, Sigma Chemical Co.) 10 mg/kg/day in the drinking water • iii) WKY rats with diabetes induced by streptozotocin injection 60 mg/kg\nIn each model the rats were randomised to VIP (H-[…]NH2, obtained from Auspep, Australia) or vehicle control (Haemaccel, Aventis) infusion for 4 weeks via Alzet minipump (n=6-8 each experimental group). The dose of VIP was 5 pmol/kg/min.\nIn models i) and ii) 14 week old WKY rats were commenced on high salt diet or high salt diet plus L-NAME. […] Myocardial VIP and myocardial fibrosis were quantitated. […]\nMyocardial VIP concentrations and myocardial fibrosis were quantitiated.\nas §1"}, "[4]": {"tested_on": "WKY rats on high salt diet, high salt diet plus L-NAME, or with streptozotocin induced diabetes", "assay": "Regression of existing myocardial fibrosis after VIP infusion (Example 4)", "type": "in vivo, rat", "conditions": "VIP 5 pmol/kg/min, 4 weeks, three models: high salt, streptozotocin diabetes (FIGS. 4 to 6)", "method": "(§2) VIP was measured by radioimmunoassay in known manner (see Davis R. E., Shelley S., Macdonald G. J. & Duggan K. A. (1992) The effects of a high sodium diet on the metabolism and secretion of vasoactive intestinal peptide in the rabbit. J. Physiol. 451:17-23. Duggan K. A., Ye V. Z. C., Jones D. M. Davis R. E. & Macdonald G. J. (1995) Effects of Endopeptidase 24.11 blockade on plasma and tissue concentrations of vasoactive intestinal peptide Clin. Sci. 89:267-271). The degree of myocardial fibrosis was quantitated by two methods in known manner (refer Ye V Z C, Hodge G, Yong J L C & Duggan K A (2002) Early myocardial fibrosis is associated with depletion of vasoactive intestinal peptide in the heart Exp. Physiol 87:539-546 Ye V Z C, Hodge G, Yong J L C & Duggan K A (2003) Myocardial VIP and myocardial fibrosis induced by nitric oxide synthase inhibition in the rat Acta Physiol. Scand. 179:353-360. Ye V Z C, Hodge G, Yong J L C & Duggan K A (2004) Vasopeptidase inhibition reverses myocardial VIP depletion and decreases myocardial fibrosis in salt sensitive hypertension Europ. J. Pharmacol. 485:235-242). […]"}, "[5]": {"tested_on": "WKY rats on high salt diet or high salt diet plus L-NAME", "assay": "Myocardial VIP content after four week VIP infusion (Example 4)", "type": "in vivo, rat", "conditions": "four week intravenous infusion of VIP vs vehicle; WKY high salt diet, or high salt diet and L-NAME (FIGS. 7A and 7B)", "method": "FIG. 7: A—Myocardial VIP concentrations in WKY rats on a high salt diet after a four week intravenous infusion of VIP or vehicle control. B—Myocardial VIP concentrations in WKY rats on a high salt diet and L-NAME (10 mg/kg) in the drinking water after a four week intravenous infusion of VIP or vehicle control.\nas §2, with “Europ.” for “Europ. J. Pharmacol. 485:235-242).”"}, "isolated rat heart": {"tested_on": "isolated rat heart", "conditions": "isolated rat heart perfused with VIP, ischaemia then reperfusion; cited from earlier work"}, "[6]": {"tested_on": "isolated trabeculae of human hearts", "conditions": "human hearts of previously healthy individuals; cited from earlier work"}}, "note": "“Also recorded” adds a separate entry of the source."}
{"smiles": "CC[C@H](C)[C@H](NC(=O)[C@H](CO)NC(=O)[C@H](CC(N)=O)NC(=O)[C@H](CC(C)C)NC(=O)[C@H](Cc1ccc(O)cc1)NC(=O)[C@H](CCCCN)NC(=O)[C@H](CCCCN)NC(=O)[C@@H](NC(=O)[C@H](C)NC(=O)[C@H](CCSC)NC(=O)[C@H](CCC(N)=O)NC(=O)[C@H](CCCCN)NC(=O)[C@H](CCCNC(=N)N)NC(=O)[C@H](CC(C)C)NC(=O)[C@H](CCCNC(=N)N)NC(=O)[C@@H](NC(=O)[C@H](Cc1ccc(O)cc1)NC(=O)[C@H](CC(N)=O)NC(=O)[C@H](CC(=O)O)NC(=O)[C@@H](NC(=O)[C@H](Cc1ccccc1)NC(=O)[C@@H](NC(=O)[C@H](C)NC(=O)[C@H](CC(=O)O)NC(=O)[C@H](CO)NC(=O)[C@@H](N)Cc1c[nH]cn1)C(C)C)[C@@H](C)O)[C@@H](C)O)C(C)C)C(=O)N[C@@H](CC(C)C)C(=O)N[C@@H](CC(N)=O)C(N)=O", "note": "[VIP]", "values": [{"measurement": "myocardial fibrosis index, treated rats compared to the control groups", "setting": "[1]", "value": "significantly lower"}, {"measurement": "uptake of VIP by the heart from the plasma (difference between mean myocardial VIP concentrations after VIP or control infusion)", "setting": "[2]", "value": "As fibrosis worsens the amount of VIP taken up by the heart increases; also recorded: more avid with increasing degrees of fibrosis; also recorded: the higher the level of fibrosis, the greater the uptake of VIP by the heart; also recorded: found to increase as the degree of fibrosis increased"}, {"measurement": "myocardial fibrosis index, treated rats compared to the control groups", "setting": "[3]", "value": "significantly lower"}, {"measurement": "regression of existing myocardial fibrosis", "setting": "[4]", "value": "regression of myocardial fibrosis in the three models"}, {"measurement": "myocardial content of VIP / uptake of exogenous VIP", "setting": "[5]", "value": "clear association between the degree of fibrosis and uptake of exogenous VIP"}, {"measurement": "myocardial function (left ventricular functions, coronary flow, tissue injury)", "setting": "isolated rat heart", "value": "significant improvement of myocardial function"}, {"measurement": "ionotropic effect in atria and ventricles", "setting": "[6]", "value": "direct positive ionotropic effect"}]}
